The values that follow come from publication PMC6829536 (International Journal of Molecular Sciences, 2019).

The target in one assay is T1, P56W CaFADS (Corynebacterium ammoniagenes, UniProt Q59263, P56W).
T1 construct: made in house; host or cells: E. coli BL21(DE3)
Kind of assay: biochemical. The assay is classed as biochemical. How it is done:
(§1) Reactions were initiated by the addition of ~20 nM of enzyme. After 1 min incubation at 25 °C, the reactions were stopped by boiling the mixtures for 5 min. The composition of flavins in the supernatant was determined using an Alliance HPLC system (Waters, Milford, MA, USA) equipped with a 2707 autosampler and a HSST3 column (4.6 × 150 mm, 3.5 µm, Waters) preceded by a pre-column (4.6 × 20 mm, 3.5 µm, Waters). The chromatography was developed at 1 mL/min with a 6 min isocratic program of methanol 40% (v/v) in 5 mM ammonium acetate (pH 6.0). Detection of flavins was carried out using a 2475 Multi λ fluorescence detector (Waters), excitation wavelength of 470 nm and emission wavelength of 530 nm. […] The flavinic products of the reaction were identified by their retention times and quantified through their corresponding standard curves obtained under the same conditions. Controls containing free flavins in the absence of the enzyme were treated similarly to reaction samples to discard flavin degradation during RFK activity determination. […] In case of inhibition, the experimental data were fitted to a model describing the substrate inhibition of a bi-substrate mechanism. In these situations, errors in apparent Km and kcat (^appKm and ^appkcat) increased with the inhibition constant (Ki) value getting closer to Km^S. Reaction mixtures were evaluated in triplicates, and final results are expressed as the standard error of the fitted value (value ± SE).

The next assay has as its target T2, P56A/P58A CaFADS (Corynebacterium ammoniagenes, UniProt Q59263, P56A/P58A).
T2 construct: made in house; host or cells: E. coli BL21(DE3)
As to the kind of experiment: biochemical. Type of assay: biochemical. How it is done:
as §1

The next assay concerns the target T3, P58W CaFADS (Corynebacterium ammoniagenes, UniProt Q59263, P58W).
T3 construct: made in house; host or cells: E. coli BL21(DE3)
As to the kind of experiment: biochemical. Type of assay: biochemical. How it is done:
as §1

The next assay deals with T4, L98A CaFADS (Corynebacterium ammoniagenes, UniProt Q59263, L98A).
T4 construct: made in house; host or cells: E. coli BL21(DE3)
As to the kind of experiment: biochemical. Type of assay: biochemical. How it is done:
as §1

The target of another assay is T5, L98K CaFADS (Corynebacterium ammoniagenes, UniProt Q59263, L98K).
T5 construct: made in house; host or cells: E. coli BL21(DE3)
As to the kind of experiment: biochemical. Type of assay: biochemical. How it is done: as §1

For the next assay, the target named is T6, L98W CaFADS (Corynebacterium ammoniagenes, UniProt Q59263, L98W).
T6 construct: made in house; host or cells: E. coli BL21(DE3)
As to the kind of experiment: biochemical. Type of assay: biochemical. How it is done: as §1

In the next assay the test system is CaFADS variants. As to the kind of experiment: Qualitative detection of RFK, FMNAT and FADpp activities by TLC. The assay is classed as biochemical, Corynebacterium ammoniagenes. Particulars: all variants, 200 nM enzyme, 50 μM flavin, 0.2 mM ATP, 10 mM MgCl2, pH 7.0, 30 min and 2 h. The procedure:
RFK and FMNAT activities were qualitatively assayed by the incubation of enzymes with substrates and separation of flavins (substrates and products) from reaction mixtures using TLC on Silica Gel SIL-G-25 plates (20 × 20 cm, thickness 0.25 mm) as previously described. […] Reactions were stopped by boiling the preparations for 5 min. Flavin spots were visualized under UV light.

For the next assay, the target named is T7, WT CaFADS (Corynebacterium ammoniagenes, UniProt Q59263).
T7 construct: made in house; host or cells: Escherichia coli
Particulars: saturating ATP, 20 mM PIPES, 0.8 mM MgCl2, pH 7.0, 25 °C, cited from earlier work.

As usually defined, the kcat is the number of substrate molecules converted per active site and unit of time at saturation. For orientation: Km means the concentration of substrate that gives half-maximal velocity.

For the compound `Cc1cc2nc3c(=O)[nH]c(=O)nc-3n(C[C@H](O)[C@H](O)[C@H](O)CO)c2cc1C` [RF, Riboflavin], the Ki at P56W CaFADS was determined as 6.5 ± 1.9 µM; at P56A/P58A CaFADS, 54 ± 29 µM; at P58W CaFADS it was 39 ± 21 µM; at L98A CaFADS, 32 ± 15 µM; at L98K CaFADS, 41 ± 13 µM; on L98W CaFADS, 46 ± 20 µM. Also, on WT CaFADS (RF substrate inhibition), the Ki is 4.9 ± 3.9 µM. For the same compound, the “decrease of Km^RF relative to WT” value at P56W CaFADS (P56W CaFADS vs WT) is given as “up to 30 fold”. Moreover, the kcat on P56W CaFADS (P56W CaFADS, RF varied, saturating ATP, apparent value, 20 mM PIPES, 0.8 mM MgCl2, pH 7.0, 25 °C) is 0.75 ± 0.083 s⁻¹; on P56A/P58A CaFADS (P56A/P58A CaFADS, RF varied, saturating ATP, apparent value, 20 mM PIPES, 0.8 mM MgCl2, pH 7.0, 25 °C) it was 1.3 ± 0.2 s⁻¹; at P58W CaFADS (P58W CaFADS, RF varied, saturating ATP, apparent value, 20 mM PIPES, 0.8 mM MgCl2, pH 7.0, 25 °C) it was 1.63 ± 0.317 s⁻¹; at L98A CaFADS (L98A CaFADS, RF varied, saturating ATP, apparent value, 20 mM PIPES, 0.8 mM MgCl2, pH 7.0, 25 °C), 2.3 ± 0.433 s⁻¹; at L98K CaFADS (L98K CaFADS, RF varied, saturating ATP, apparent value, 20 mM PIPES, 0.8 mM MgCl2, pH 7.0, 25 °C) it was 4.13 ± 0.567 s⁻¹; at L98W CaFADS (L98W CaFADS, RF varied, saturating ATP, apparent value, 20 mM PIPES, 0.8 mM MgCl2, pH 7.0, 25 °C), 2.33 ± 0.35 s⁻¹. Moreover, the kcat at WT CaFADS (RF varied, apparent value) is 6.8 ± 3.33 s⁻¹. Further, the “RFK activity (transformation of RF), qualitative” value with CaFADS variants is recorded as “All variants kept the RFK activity”. The Michaelis constant (Km) on WT CaFADS (RF varied, apparent value, read-out: Km^RF) is 12 ± 3 µM.
